Source: patent publication US20090270381A1, “Non-steroidal progesterone receptor modulators” (priority 2007, published 2009)

target: T1, PR-B (Homo sapiens, UniProt P06401); assay: Transactivation test on antagonistic activity on PR-B; format: cell-based; settings: not given
T1 construct: expressed in transfected cells
T1 sequence (P06401 1-933): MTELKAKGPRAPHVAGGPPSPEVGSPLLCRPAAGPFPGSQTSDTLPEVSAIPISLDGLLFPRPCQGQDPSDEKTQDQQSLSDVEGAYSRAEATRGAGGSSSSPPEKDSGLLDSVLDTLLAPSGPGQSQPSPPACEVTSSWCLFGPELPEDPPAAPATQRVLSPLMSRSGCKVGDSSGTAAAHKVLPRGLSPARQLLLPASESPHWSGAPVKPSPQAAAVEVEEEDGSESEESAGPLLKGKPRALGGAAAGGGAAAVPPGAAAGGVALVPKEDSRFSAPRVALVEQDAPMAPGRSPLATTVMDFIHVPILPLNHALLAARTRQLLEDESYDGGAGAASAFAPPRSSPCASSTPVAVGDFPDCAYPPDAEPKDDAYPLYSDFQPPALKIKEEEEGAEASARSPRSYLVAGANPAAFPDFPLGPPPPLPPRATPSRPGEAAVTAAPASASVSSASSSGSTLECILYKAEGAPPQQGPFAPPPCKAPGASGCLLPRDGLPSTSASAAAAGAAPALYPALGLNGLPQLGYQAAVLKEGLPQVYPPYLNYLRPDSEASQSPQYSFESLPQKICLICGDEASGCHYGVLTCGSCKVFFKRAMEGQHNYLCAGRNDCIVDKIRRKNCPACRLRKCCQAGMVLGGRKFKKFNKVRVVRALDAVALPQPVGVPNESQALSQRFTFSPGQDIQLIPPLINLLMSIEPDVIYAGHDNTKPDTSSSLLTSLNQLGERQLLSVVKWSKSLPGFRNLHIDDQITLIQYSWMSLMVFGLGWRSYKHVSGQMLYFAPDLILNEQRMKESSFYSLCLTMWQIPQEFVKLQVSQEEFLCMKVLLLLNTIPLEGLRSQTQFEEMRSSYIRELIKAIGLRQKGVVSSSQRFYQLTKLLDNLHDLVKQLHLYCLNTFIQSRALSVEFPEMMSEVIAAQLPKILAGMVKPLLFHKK
Protocol: The transactivation assay is carried out as described in WO 02/054064.

| Compound | IC50 [nM] |
| --- | --- |
| N#Cc1ccc(NC(=O)C(O)(C#Cc2ccc(C(=O)O)cc2)C2CCCCC2)cc1Cl (racemic) [Example 12, rac-N-(3-Chloro-4-cyanophenyl)-2-hydroxy-2-cyclohexyl-2-(4-carboxyphenyl)-ethynylacetamide] | 1.8 |

same assay, conditions: antagonistic activity on PR-B; read-out: IC50

| Compound | IC50 [nM] |
| --- | --- |
| COc1ccc(CC(O)(C(=O)Nc2ccc(C#N)c(Cl)c2)C2CCCCC2)cc1 (racemic) [Example 16, rac-N-(3-Chloro-4-cyanophenyl)-2-cyclohexyl-2-hydroxy-3-(4-methoxyphenyl)-propionamide] | 17 |
| N#Cc1ccc(NC(=O)C(O)(Cc2ccccc2)C2CCCC2)cc1Cl (racemic) [Example 32, rac-N-(3-Chloro-4-cyanophenyl)-2-cyclopentyl-2-hydroxy-3-phenylpropionamide] | 27 |
| N#Cc1ccc(NC(=O)C(O)(Cc2ccccc2)C2CCCC2)cc1C(F)(F)F (racemic) [Example 39, rac-N-(4-Cyano-3-trifluoromethylphenyl)-2-cyclopentyl-2-hydroxy-3-phenyl-propionamide] | 17 |
| N#Cc1ccc(NC(=O)C(O)(C#Cc2ccccc2)C2CCCCC2)cc1Cl (single isomer, unassigned; (-)) [Example 2b, (−)-N-(3-chloro-4-cyanophenyl)-2-hydroxy-2-cyclohexyl-2-phenylethynylacetamide] | 1.8 |
| rac-N-(3-Chloro-4-cyanophenyl)-2-hydroxy-2-cyclohexyl-2-(4-fluorophenyl)-ethynylacetamide [Example 6] | 5 |
| rac-N-(3-Chloro-4-cyanophenyl)-2-hydroxy-2-cyclohexyl-2-(4-trifluoromethyl-phenyl)ethynylacetamide [Example 5] | 7.9 |
